The values below come from patent US3968233A, “α-Amino-γ-butyrolactones as sedatives” (priority 1975, dated 1976).

Structures are written as SMILES. Counter-ions that a name gives are not always drawn.

Data set [1] can be described thus: Protective effect against electroshock (MES). Conditions: phenobarbital Na 40 mg/kg i.p., 10 minutes before electroshock.
The format of data set [2] is in vivo, mouse. Conditions: control experiments; 95-percent confidence limits. As for the experimental part: This type of antagonism was evaluated in the mouse in three ways, namely: (1) protection from death from one hypodermic injection of strychnine: (2) evaluation of the LD50 of strychnine in mice both treated and untreated with AP-28, and (3) influence on the time required to cause animals to die by slow intravenous perfusion of strychnine. […] Groups of six mice were used. (2) increasing amounts of strychnine sulfate were injected hypodermically. In two experiments 200 or 400 mg/kg of intraperitoneal AP-28 were given 30 minutes prior to strychnine injection and the LD50 was calculated. The following results were obtained (95-percent confidence limits): […]

A short description of data set [3]: Influence on amphetamine-induced hypermobility. Conditions: d-amphetamine sulfate 5 mg/kg i.p. alone. The data set is classed as in vivo, mouse. As for the experimental part: Six groups of 4 mice each were treated with 5 mg/kg d-amphetamine sulfate by intraperitoneal administration. Six groups of 4 animals each received the same dose of d-amphetamine sulfate plus 250 mg/kg of AP-28 intraperitoneally 15 minutes after d-amphetamine sulfate; six more groups of four animals each received saline solution and served as control animals. […] The number of times each animal crossed the light beam throughout the 10-minute test was noted.

Data set [4] is described as follows: Enhancement of the hypnotic effect of sodium pentobarbital. The data set is classed as in vivo, mouse. Conditions: sodium pentobarbital 40 mg/kg i.p. alone. As for the experimental part: Forty mg/kg of sodium pentobarbital was injected intraperitoneally into mice and note was taken of animals losing the righting reflex and for how long. Other mice received a preliminary treatment with AP-28 at a dosage of 250 and 500 mg/kg, intraperitoneally, and thereafter sodium pentobarbital was given to them.

For the compound `CCC1(c2ccccc2)C(=O)NC(=O)NC1=O` [Phenobarbital Na, Phenobarbital sodium, reference compound], the Number animals died in data set [1] is listed as 0/8. For the same compound, in data set [1] (in parentheses number treated), the “Number animals with clonic convulsions” value was 8(8) and the “Number animals with tonic convulsions” value is 0(8).

As to `O=C1C[C@@H]2OCC=C3CN4CC[C@]56c7ccccc7N1[C@H]5[C@H]2[C@H]3C[C@H]46` [Strychnine, strychnine sulfate], in data set [2], the LD50 of strychnine is recorded as 0.83 (1.02-0.67) mg/kg.

Regarding `C[C@H](N)Cc1ccccc1` [d-amphetamine, d-amphetamine sulfate, reference compound], the “Mean number of crossings (± SE) in 10 minutes” value in data set [3] worked out at 657 ± 59.

Regarding `CCCC(C)C1(CC)C(=O)NC(=O)NC1=O` (stereo not shown) [sodium pentobarbital, reference compound], the Animals under hypnosis/treated in data set [4] is reported as 3/4. The “Duration of hypnosis in minutes (m ± SE)” value in data set [4] (zero assigned to animals not losing righting reflex) turned out to be 3.25 ± 3.4 min.
